In patent US7256286B2, “Bryostatin analogues, synthetic methods and uses” (The Board of Trustees of the Leland Stanford Junior …, priority 1999, dated 2007):

Columns and labels:
LOX IMVI = assay: NCI human cancer cell line growth inhibition: LOX IMVI; type: cell-based; conditions: Melanoma
BT-549 = assay: NCI human cancer cell line growth inhibition: BT-549; type: cell-based; conditions: BT-549, Breast
SN12C = assay: NCI human cancer cell line growth inhibition: SN12C; type: cell-based; conditions: Renal
RPMI-8226 = assay: NCI human cancer cell line growth inhibition: RPMI-8226; type: cell-based; conditions: RPMI-8226, Leukemia
K-562 = assay: NCI human cancer cell line growth inhibition: K-562; type: cell-based; conditions: K-562, Leukemia
OVCAR-4 = assay: NCI human cancer cell line growth inhibition: OVCAR-4; type: cell-based; conditions: OVCAR-4, Ovarian
HOP-62 = assay: NCI human cancer cell line growth inhibition: HOP-62; type: cell-based; conditions: Homo sapiens; HOP-62, NSC Lung
SNB-75 = assay: NCI human cancer cell line growth inhibition: SNB-75; type: cell-based; conditions: SNB-75, CNS
SK-OV-3 = assay: NCI human cancer cell line growth inhibition: SK-OV-3; type: cell-based; conditions: SK-OV-3, Ovarian
CCRF-CEM = assay: NCI human cancer cell line growth inhibition: CCRF-CEM; type: cell-based; conditions: Leukemia
IGROVI = assay: NCI human cancer cell line growth inhibition: IGROVI; type: cell-based; conditions: Ovarian
[1] = tested on: NCI human cancer cell-lines; assay: In vitro inhibition of growth in human cancer cell lines (all cell groups); type: cell-based; conditions: on average, all cell groups tested
HL-60(TB) = assay: cells; type: cell-based, human
786-0 = assay: NCI human cancer cell line growth inhibition: 786-0; type: cell-based; conditions: 786-0, Renal
A549/ATCC = assay: NCI human cancer cell line growth inhibition: A549/ATCC; type: cell-based; conditions: NSC Lung
SR = assay: NCI human cancer cell line growth inhibition: SR; type: cell-based; conditions: Leukemia
MI4 = assay: NCI human cancer cell line growth inhibition: MI4; type: cell-based; conditions: MI4, Melanoma
SK-MEL-28 = assay: NCI human cancer cell line growth inhibition: SK-MEL-28; type: cell-based; conditions: SK-MEL-28, Melanoma
A498 = assay: NCI human cancer cell line growth inhibition: A498; type: cell-based; conditions: A498, Renal
NCI-H460 = type: cell-based, human; conditions: NCI-H460, NSC Lung
HCT-15 = assay: NCI human cancer cell line growth inhibition: HCT-15; type: cell-based; conditions: Homo sapiens; HCT-15, Colon
PKCδ-C1B = molecular target: T1, PKCδ-C1B (Mus musculus, UniProt P28867); assay: PKCδ-C1B assay; type: binding
T1 construct: made in house
Description: Phosphatidyl serine vesicles are prepared by the addition of phosphatidyl serine (10 mg/mL in chloroform, 0.4 mL) to a glass test tube followed by removal of the chloroform under a stream of nitrogen (5 min). […] The resulting solution is stored over ice. […] Stock solutions of compounds are diluted with absolute ethanol in glass in serial fashion. […] The tubes are incubated at 37° C. for 90 min. and then put on ice for 5 min. Each tube is then filtered separately through a pre-soaked filter disc. […] The filter is subsequently rinsed with cold 20 mM TRIS buffer (5 mL) dropwise. […] The filters are immediately counted in a scintillation counter (Beckman LS 6000SC). Counts per minute are averaged among three trials at each concentration.

P388 cell line = assay: P388 murine lymphocytic leukemia cell assay; type: cell-based
Description: Cells from a P388 cell line (CellGate, Inc., Sunnyvale, Calif.) are grown in RPMI 1640 cell medium containing fetal calf serum (10%), L-glutamine, penicillin, streptomycin and are split twice weekly. All compounds are first diluted with DMSO. Later serial dilutions are done with a phosphate buffer solution (HYQ DPBS modified phosphate buffered saline). All dilutions are done in glass vials and the final DMSO concentration is always below 0.5% by volume. Final two-fold dilutions are done in a 96 well plate using cell media so that each well contains 50 μL. All compounds are assayed in quadruplicate over 12 concentrations. Cell concentration is measured using a hemacytometer and the final cell concentration is adjusted to 1×10^4 cells/mL with cell medium. The resulting solution of cells (50 μL) is then added to each well and the plates are incubated for 5 days in a 37° C., 5% CO2, humidified incubator (Sanyo CO2 incubator). MTT solution (3-[4,5-dimethylthiazol-2-yl]-2,5-diphenyltetrazolium bromide, 10 μL) is then added to each well and the plates are re-incubated under identical conditions for 2 h. To each well is then added acidified isopropanol (150 μL of i-PrOH solution containing 0.05 N HCl) and mixed thoroughly. The plates are then scanned at 595 nm and the absorbances are read (Wallac Victor 1420 Multilabel Counter). The resulting data is then analyzed to determine an ED50 value using the Prism software package (GraphPad).

[2] = 702.1 vs corresponding C26 methyl-containing analogue, 48, 49 among C20 ester analogues

T1 sequence (P28867 231-281 limits assumed): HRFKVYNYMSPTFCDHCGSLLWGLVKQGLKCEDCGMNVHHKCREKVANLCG

## CCCCCCCC(=O)O[C@H]1/C(=C/C(=O)OC)C[C@H]2C[C@H](CO)OC(=O)C[C@H](O)C[C@@H]3CCCC(CC4CCO[C@H](/C=C/C(C)(C)[C@]1(O)O2)O4)O3 [Formula IIa (702.1)]
LOX IMVI; Homo sapiens
  GI50: 3.39 µM
LOX IMVI
  Difference (GI50 desmethyl vs Bryo-1): −0.37
BT-549
  Difference (GI50 desmethyl vs Bryo-1): 0.39
BT-549; Homo sapiens
  GI50: 19.5 µM
SN12C; Homo sapiens
  GI50: 2.57 µM
SN12C
  Difference (GI50 desmethyl vs Bryo-1): −0.49
RPMI-8226; Homo sapiens
  GI50: 1.51 µM
RPMI-8226
  Difference (GI50 desmethyl vs Bryo-1): −0.82
K-562; Homo sapiens, K562
  GI50: 0.0316 µM
K-562
  Difference (GI50 desmethyl vs Bryo-1): −2.10
  more active than bryostatin-1 by: more than 2 orders of magnitude
OVCAR-4; Homo sapiens
  GI50: 7.08 µM
OVCAR-4
  Difference (GI50 desmethyl vs Bryo-1): 0.35
HOP-62
  GI50: 16.2 µM
SNB-75; Homo sapiens
  GI50: 10.7 µM
SNB-75
  Difference (GI50 desmethyl vs Bryo-1): 0.53
SK-OV-3; Homo sapiens
  GI50: 50.1 µM
SK-OV-3
  Difference (GI50 desmethyl vs Bryo-1): 0.80
CCRF-CEM; Homo sapiens
  GI50: 1.55 µM
CCRF-CEM
  Difference (GI50 desmethyl vs Bryo-1): −0.51
IGROVI; Homo sapiens
  GI50: 13.2 µM
IGROVI
  Difference (GI50 desmethyl vs Bryo-1): 0.42
[1]
  potency compared with bryostatin-1: at least as potent, on average, as bryostatin-1
HL-60(TB)
  Difference (GI50 desmethyl vs Bryo-1): −0.14
HL-60(TB); Homo sapiens, HL-60, read-out: Growth inhibition (GI50)
  GI50: 1.45 µM
786-0
  Difference (GI50 desmethyl vs Bryo-1): −0.26
786-0; Homo sapiens
  GI50: 3.47 µM
A549/ATCC; Homo sapiens
  GI50: 0.24 µM
A549/ATCC
  Difference (GI50 desmethyl vs Bryo-1): −1.42
SR; Homo sapiens
  GI50: 7.94 µM
SR
  Difference (GI50 desmethyl vs Bryo-1): −0.10
MI4; Homo sapiens
  GI50: 5.5 µM
MI4
  Difference (GI50 desmethyl vs Bryo-1): −0.26
SK-MEL-28; Homo sapiens
  GI50: 21.4 µM
SK-MEL-28
  Difference (GI50 desmethyl vs Bryo-1): 0.43
A498
  Difference (GI50 desmethyl vs Bryo-1): −1.38
A498; Homo sapiens
  GI50: 0.417 µM
NCI-H460; Homo sapiens, read-out: Growth inhibition (GI50)
  GI50: < 0.01 µM
NCI-H460
  Difference (GI50 desmethyl vs Bryo-1): −2.40
  more active than bryostatin-1 by: more than 2 orders of magnitude
HCT-15
  GI50: 17.4 µM
PKCδ-C1B
  Ki: 0.0003 ± 7e-05 µM
PKCδ-C1B; [2]
  activity in PKCδ-C1B assay compared with other analogues: significantly higher activity
P388 cell line; [2]
  activity in P388 assay compared with other analogues: significantly higher activity
P388 cell line; Mus musculus, P388, 120 h, 5 days incubation, MTT, read-out: P388 Assay ED50
  EC50: 0.017 µM
